# From US20260274810A1, “NOVEL MITOFUSIN INHIBITORS” (ALBERT EINSTEIN COLLEGE OF MEDICINE, priority 2023, published 2026)
# What was measured:
# [1] = system: MEFs; experiment: Metabolomics (TCA cycle, NAD/NADH); assay type: cell-based, mouse
# Experimental: Metabolomics. MEFs were treated with MASM7 and MFI8. Cells were harvested using a cell scraper and centrifuged at 1200 rpm in 4° C. for 3 min. Each cell pellet sample was suspended into 250 to 700 μL of 80% aqueous methanol in an Eppendorf tube. The samples were vortex mixed for 15 s and sonicated in an ice-water bath for 5 min, followed by centrifugal clarification at 15,000 rpm and 5° C. in an Eppendorf 5424R centrifuge. The clear supernatants were collected. A standard stock solution of TCA cycle carboxylic acids, NAD and NADH was prepared in 80% methanol as S1. This standard solution S1 was serially diluted 1 to 4 (v/v) with the same solvent to make standard solutions S2 to S10. 20 μL of each standard solution and an aliquot of the clear supernatant from each cell was mixed with 20 μL of an internal standard solution containing 9 ^13C- or deuterium labeled analogues of the TCA cycle carboxylic acids (except isocitric acid), 20 μL of 200 mM 3-NPH solution and 20 μL of 150 mM of EDC solution. The mixtures were allowed to react at 30° C. for 30 min. After reaction, 120 μL of water was added to each solution. 10 μL of the resultant solutions was injected into a C18 UPLC column to quantitate the TCA cycle carboxylic acids by UPLC-MRM/MS with (−) ion detection, according to the procedure we described in a publication.
# [2] = system: MEFs; experiment: DNA damage, γH2AX immunofluorescence; assay type: cell-based, mouse
# Experimental: Immunofluorescent analysis and microscopy. Cells were treated with MASM7, MFI8 and or Q-VD-OPh at ~70% confluence for 6 h. After treatments, cells were washed with PBS and fixed with 4% PFA for 15 min. Then cells were permeabilized with 0.1% Triton X-100 in PBS for 10 min. Cells were blocked with 5% BSA in PBS-T and incubated overnight with primary antibodies as indicated; γH2AX (Sigma; 05-636, 1:100 dilution). After incubation with primary antibodies, cells were washed with PBS and incubated with the appropriate mouse secondary antibody (ThermoFisher Scientific; A-11001) in the blocking solution. After PBS washes, coverslips were dipped in water and mounted on glass slides using Vectashield containing DAPI (Vector laboratories). Images were taken with Leica SP5 inverted confocal microscope. Data were analyzed with ImageJ.
# [3] = system: MEFs; experiment: Cytochrome C release; assay type: cell-based, mouse; conditions: 6 hrs; mitofusin dependent
# Experimental: Cytochrome C release. MEFs were seeded in a […] and grown at ~70% confluence. Following 6 hrs treatment with MFI8, cells were harvested and lysed in digitonin buffer [20 mM Hepes, pH 7.2, 10 mM KCl, 5 mM MgCl2, 1 m MEDTA, 1 mM EGTA, 250 mM sucrose, 0.025% Digitonin (from 5% w/v stock) and complete protease inhibitors (Roche Applied Science)] on ice for 10 min. Then, supernatants were isolated by centrifugation at 15,000×g for 10 min. Mitochondrial pellets solubilized in 1% Triton X-100/PBS for 1 hr at 4° C. Solubilized Pellets were subjected to a 14,000×rpm spin for 10 min. Samples were prepared for western blot analysis and separated by 4-12% NuPage (Life Technologies).
# [4] = system: caspase-3/7 in U2OS cells; experiment: Caspase-3/7 activation assay; assay type: cell-based
# Experimental: Caspase-3/7 activation assay. Cells (5×10^3 cells/well) were seeded in a 96-well white plate and treated with MASM7, MFI8. Caspase 3/7 activation was measured after 6 hr by addition of the Caspase-Glo 3/7 reagent according to the manufacturer's protocol (Promega). Luminescence was detected by a F200 PRO microplate reader (TECAN). Caspase assays were performed in at least triplicate and the data normalized to vehicle-treated control wells. Dilutions of MASM7 or MFI8 were performed using a TECAN D300e Digital Dispenser from 10 mM stocks.
# [5] = system: U2OS cells; experiment: Mitochondrial fusion in U2OS cells; assay type: cell-based
# Experimental: Measurement of mitochondrial aspect ratio (Mito AR). Images that depict stained mitochondria with mitotracker green were analyzed using FIJI We measured for each mitochondrion its length and width. Then, we divided the length by the width for each mitochondrion to get its mitochondrial aspect ratio. >200 mitochondria were measured per treatment.
# [6] = system: cells; experiment: Cell viability assay (CellTiter-Glo); assay type: cell-based; conditions: 72 hours
# Experimental: Cell viability assay. Cells (5×10^3 cells/well) were seeded in a 96-well white plate and treated with serial dilutions of MASM7 or MFI8. Cell viability was assayed after 72 hrs by addition of CellTiter-Glo reagent according to the manufacturer's protocol (Promega). Luminescence was measured using a F200 PRO microplate reader (TECAN). Viability assays were performed in at least triplicate and the data normalized to vehicle-treated control wells. Dilutions of MASM7 or MFI8 were performed using a TECAN D300e Digital Dispenser from 10 mM stocks.
# [7] = system: U2OS cells; experiment: Minority MOMP imaging; assay type: cell-based; conditions: U2OS cells expressing CytoGFP and MitoCherry, 3 h
# Experimental: Minority MOMP. U2OS cells (100,000) were seeded onto glass coverslips and transfected with 250 ng each of CytoGFP and Mito-mCherry as previously described 39. 16 h after transfection, cells were treated with compounds for 3 h and then fixed in 4% paraformaldehyde. Cells were imaged on a Zeiss LSM880 with Airyscan using a 63×1.4 NA objective. Subsequent to acquisition, images were processed using the Airyscan processing function in ZEN software. Minority MOMP was quantified by manually scoring the co-localisation of CytoGFP and mito-mCherry.
# [8] = system: MEFs; experiment: Mitochondrial aspect ratio (Mito AR), live cell imaging
# Experimental: Live cell imaging. MEFs were seeded on chamber slides (MatTek Corporation: 35 mm dishes, No. 1.5, 14 mm glass diameter) at ~70% confluence. […] Images were taken with Leica SP5 inverted confocal microscope. Data were analyzed with Image J software. >200 mitochondria were measured per condition in mitochondrial aspect ratio.
# MEFs were seeded on chamber slides (MatTek Corporation: 35 mm dishes, No. 1.5, 14 mm glass diameter) at ~70% confluence. Cells were treated with compounds. Then, cells were stained with MitoTracker Green (200 nM, Invitrogen) for 20 min at 37° C. After treatments, media was replaced with FluoroBrite™ DMEM (Invitrogen) supplemented with 10% FBS, 100 U ml^−1 penicillin/streptomycin, 2 mM L-glutamine and compound prior image acquisition. Images were taken with Leica SP5 inverted confocal microscope. Data were analyzed with Image J software. >200 mitochondria were measured per condition in mitochondrial aspect ratio. Measurement of mitochondrial aspect ratio (Mito AR). Images that depict stained mitochondria with mitotracker green were analyzed using FIJI software. Each mitochondrion was measured for its length and width. Then, the length was divided by the width for each mitochondrion to get its mitochondrial aspect ratio. >200 mitochondria were measured per treatment.
# [9] = system: MEFs; experiment: Mitochondrial respiration in cellulo (OCR); assay type: cell-based, mouse; conditions: WT MEFs; MASM7 1 μM or MFI8 20 μM, 6 hrs
# Experimental: Mitochondrial respiration in cellulo. Mitochondrial oxygen consumption rates (OCR) were assessed using a XF24 Analyzer (Seahorse Biosciences, Billerica MA, USA). In brief, 3×10^4 MEFs were cultured in a XF24 cell culture microplate containing DMEM supplemented with 10% fetal bovine serum. Cells were treated with MASM7 (1 μM) or MFI8 (20 μM) 6 hrs prior to OCR analysis. Mitochondrial respiration was assessed by the sequential addition of oligomycin (1 μM), carbonyl cyanide-4-(trifluoromethoxy)phenylhydrazone (FCCP, 2 μM) and rotenone (1 μM)-antimycin (1 μM) as previously reported. OCR was normalized to cell number or total protein content per well for each condition tested.
smiles,measurement,setting,value
Cc1cccc(NC(C)c2cc(Cl)ccc2O)c1C (stereo not drawn) [MFI8],metabolites of the TCA cycle,[1],"markedly reduced several metabolites such as malate, oxaloacetate, and α-ketoglutarate"
same,total NAD+/NADH ratio,[1],decreased the total NAD^+/NADH ratio
same,γH2AX foci / DNA damage,[2]; MFN1/MFN2 DKO MEFs,not in MFN1/MFN2 DKO MEFs
same,γH2AX foci / DNA damage,"[2]; WT MEFs, 6 h",increased γH2AX foci
same,cytochrome c release to the cytosol,[3],"cytochrome c was released to the cytosol, albeit at modest levels"
same,caspase-3/7 activation,[4],induced caspase-3/7 activation
same,mitochondrial fusion,[5],inhibited mitochondrial fusion in U2OS cells
same,cellular viability,[6],neither MFI8 nor MASM7 decreased cellular viability
same,MOMP,[7],"induced MOMP, albeit at modest levels"
same,mitochondrial aspect ratio,[8]; MFN1/MFN2 DKO MEFs reconstituted with WT MFN2,significantly decreased mitochondrial aspect ratio
same,IC50,"[8]; Mus musculus, 6 h, read-out: IC50 (decrease of Mito AR)",4.06 µM
same,mitochondrial aspect ratio,[8]; co-treated with MASM7 in MEFs,reduced mitochondrial aspect ratio
same,mitochondrial aspect ratio,[8]; double knockout of MFN1 and MFN2,completely abolished MFI8 from reducing mitochondrial aspect ratio
same,mitochondrial aspect ratio,[8]; either MFN1 or MFN2 knocked out,still capable of reducing mitochondrial aspect ratio
same,respiration and mitochondrial ATP production,[9],reduced respiration and mitochondrial ATP production
